Reference: patent US20040009949A1, “Method for treating autoimmune or inflammatory diseases with combinations of inhibitory oligonucleotides and small molecule antagonists of immunostimulatory CpG nucleic acids” (Coley Pharmaceutical Group, Inc., priority 2002, published 2004)

Biological target: T1, human TLR9 (Homo sapiens, UniProt Q9NR96)
T1 construct: expressed in transfected cells
T1 sequence (Q9NR96 26-1032): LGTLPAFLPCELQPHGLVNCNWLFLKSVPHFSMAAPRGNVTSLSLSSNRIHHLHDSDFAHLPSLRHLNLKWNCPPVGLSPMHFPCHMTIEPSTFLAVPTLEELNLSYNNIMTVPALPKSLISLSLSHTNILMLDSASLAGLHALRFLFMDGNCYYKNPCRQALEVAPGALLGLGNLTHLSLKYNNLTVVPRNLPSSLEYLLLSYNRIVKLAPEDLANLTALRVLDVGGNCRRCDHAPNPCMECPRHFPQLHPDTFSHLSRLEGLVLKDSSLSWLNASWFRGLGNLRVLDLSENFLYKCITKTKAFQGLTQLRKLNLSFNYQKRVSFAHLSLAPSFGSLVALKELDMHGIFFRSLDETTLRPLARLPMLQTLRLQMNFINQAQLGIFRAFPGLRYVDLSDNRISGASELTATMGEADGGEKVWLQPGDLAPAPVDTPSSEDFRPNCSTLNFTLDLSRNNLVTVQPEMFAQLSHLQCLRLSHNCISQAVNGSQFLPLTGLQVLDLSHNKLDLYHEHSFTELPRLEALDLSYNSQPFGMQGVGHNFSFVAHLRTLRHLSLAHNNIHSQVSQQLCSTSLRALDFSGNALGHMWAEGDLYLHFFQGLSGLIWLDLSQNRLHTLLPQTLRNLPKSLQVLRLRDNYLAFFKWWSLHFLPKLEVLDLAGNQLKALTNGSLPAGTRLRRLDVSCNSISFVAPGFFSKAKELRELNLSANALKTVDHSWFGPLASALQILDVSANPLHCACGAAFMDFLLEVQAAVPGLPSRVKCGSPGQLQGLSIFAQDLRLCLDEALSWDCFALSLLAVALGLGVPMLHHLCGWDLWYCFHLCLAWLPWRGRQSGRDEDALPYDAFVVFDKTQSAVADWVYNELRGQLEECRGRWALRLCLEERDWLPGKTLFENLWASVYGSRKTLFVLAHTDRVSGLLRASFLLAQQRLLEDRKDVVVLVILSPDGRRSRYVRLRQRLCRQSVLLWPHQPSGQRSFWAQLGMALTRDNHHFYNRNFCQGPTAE
Assay: NF-κB-luciferase activation of stably transfected 293-hTLR9-luc cells by CpG ODN 2006 in presence of inhibitory ODN 2088 and/or chloroquine
Assay type: cell-based
Details: as Table 1: ODN 2088 0.05 μM
Procedure: To generate stable clones expressing human TLR9, murine TLR9, or either TLR9 with the NF-κB-luc reporter plasmid, 293 cells were transfected in 10 cm plates (2×10^6 cells/plate) with 16 μg of DNA and selected with 0.7 mg/mL G418 (PAA Laboratories GmbH, Cölbe, Germany). The clones were also screened for IL-8 production or NF-κB-luciferase activity after stimulation with ODN. Four different types of clones were generated.
NF-κB activation was measured by determining luciferase activity of cells 16 h later. Results are given as fold induction above medium background.

Molecule	Fold increase of EC50 compared to ODN 2006 + TE (chloroquine 0.039 μg/mL)	Fold increase of EC50 compared to ODN 2006 + TE (chloroquine 0.078 μg/mL)	Fold increase of EC50 compared to ODN 2006 + TE (chloroquine 0.3125 μg/mL)
CCN(CC)CCCC(C)Nc1ccnc2cc(Cl)ccc12 (stereo not drawn) [Chloroquine, chloroquine]	2.3 fold	2.6 fold	3.6 fold
ODN 2088: inhibitory ODN, TCCTGGCGGGGAAGT, SEQ ID NO:7 (chemistry not given here)	14.7 fold	4.2 fold	8.0 fold
